In patent US11008313B2, “Substituted 1-methyl-1,2,3,4-tetrahydroisoquinoline molecules as PCSK9 allosteric binders” (Merck Sharp & Dohme Corp., priority 2016, dated 2021):

Key:
PCSK9 [1] = target: T1, PCSK9 (Homo sapiens, UniProt Q8NBP7); assay: Fluorescence polarization competition binding assay (probe: compound of Example 57); details: 2 μM PCSK9, 50 nM compound of Example 57 as probe, overnight incubation; read-out: FP IC
In short: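 Competition fluorescence-polarization binding: 2 μM PCSK9 with 50 nM fluorescent probe in 20 mM HEPES pH 7.5, 150 mM NaCl, 1 mM CaCl2, 0.005% P-20, incubated with test compound overnight in the dark. Anisotropy read; % inhibition relative to DMSO wells and probe-without-PCSK9 wells.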

PCSK9 [2] = target: T1, PCSK9; assay: Differential scanning calorimetry (DSC) assay, direct binding / thermal stabilization of PCSK9; details: Tm(with compound)−Tm(no compound); 2 μM PCSK9, 300 μM test compound
In short: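 Thermal stabilization of 2 μM PCSK9 with or without 300 μM compound in 25 mM HEPES pH 7.5, 150 mM NaCl, 1 mM CaCl2, 3.75% DMSO. Sample heated 20–80 °C at 200 °C/hr against buffer reference. Protein Tm derived from each thermogram.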

T1 sequence (Q8NBP7 153-692): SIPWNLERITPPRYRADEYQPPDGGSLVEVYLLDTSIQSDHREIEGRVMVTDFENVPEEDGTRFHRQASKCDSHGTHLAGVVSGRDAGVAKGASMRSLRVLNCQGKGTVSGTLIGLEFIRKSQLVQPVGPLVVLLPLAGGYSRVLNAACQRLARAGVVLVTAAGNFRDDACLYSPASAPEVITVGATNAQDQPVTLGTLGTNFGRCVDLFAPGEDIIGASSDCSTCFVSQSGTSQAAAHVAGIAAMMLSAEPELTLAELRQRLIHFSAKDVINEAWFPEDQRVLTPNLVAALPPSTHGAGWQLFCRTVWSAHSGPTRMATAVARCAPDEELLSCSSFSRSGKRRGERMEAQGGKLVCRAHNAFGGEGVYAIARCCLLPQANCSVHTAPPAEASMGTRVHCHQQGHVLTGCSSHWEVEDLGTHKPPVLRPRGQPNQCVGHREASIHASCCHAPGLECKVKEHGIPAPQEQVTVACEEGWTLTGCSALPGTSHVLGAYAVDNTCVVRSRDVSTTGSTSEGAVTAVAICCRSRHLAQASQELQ

SMILES	IC50 (PCSK9 [1]) [nM]	ΔTm at 300 µM (PCSK9 [2]) [°C]
Cc1cn(-c2ccc(-c3cn(CCOc4cc5c(cc4Oc4ccc(C(=O)O)c(F)c4)[C@@](C)(CC(=O)Nc4nccs4)NCC5)nn3)cc2C)cn1 [Example 40, (R)-2-fluoro-4-((1-methyl-6-(2-(4-(3-methyl-4-(4-methyl-1H-imidazol-1-yl)phenyl)-1H-1,2,3-triazol-1-yl)ethoxy)-1-(2-oxo-2-(thiazol-2-ylamino)ethyl)-1,2,3,4-tetrahydroisoquinolin-7-yl)oxy)benzoic acid]	302	6.75
COc1ccc(-n2nc(-c3cn(CCOc4cc5c(cc4Oc4ccc(C(=O)O)c(F)c4)[C@@](C)(CC(=O)Nc4nccs4)NCC5)nn3)cc(C)c2=O)cc1 [Example 43, (R)-2-fluoro-4-((6-(2-(4-(1-(4-methoxyphenyl)-5-methyl-6-oxo-1,6-dihydropyridazin-3-yl)-1H-1,2,3-triazol-1-yl)ethoxy)-1-methyl-1-(2-oxo-2-(thiazol-2-ylamino)ethyl)-1,2,3,4-tetrahydroisoquinolin-7-yl)oxy)benzoic acid]	418	5.45
C[C@]1(CC(=O)Nc2nccs2)NCCc2cc(OCCn3cc(CCCCCCCCC(=O)O)nn3)c(Oc3ccc(C(=O)O)c(F)c3)cc21 [Example 44, (R)-4-((6-(2-(4-(8-carboxyoctyl)-1H-1,2,3-triazol-1-yl)ethoxy)-1-methyl-1-(2-oxo-2-(thiazol-2-ylamino)ethyl)-1,2,3,4-tetrahydroisoquinolin-7-yl)oxy)-2-fluorobenzoic acid]	426	6.89
Cc1ccc(-c2cn(CCOc3cc4c(cc3Oc3ccc(C(=O)O)c(F)c3)[C@@](C)(CC(=O)Nc3nccs3)NCC4)nn2)cn1 [Example 45, (R)-2-fluoro-4-((1-methyl-6-(2-(4-(6-methylpyridin-3-yl)-1H-1,2,3-triazol-1-yl)ethoxy)-1-(2-oxo-2-(thiazol-2-ylamino)ethyl)-1,2,3,4-tetrahydroisoquinolin-7-yl)oxy)benzoic acid]	530	6.96

Further lines, results first:

IC50 (PCSK9 [1]) [nM]	ΔTm at 300 µM (PCSK9 [2]) [°C]	SMILES
267	7	CC1(c2cn(CCOc3cc4c(cc3Oc3ccc(C(=O)O)c(F)c3)[C@@](C)(CC(=O)Nc3nccs3)NCC4)nn2)CCOC1 (stereo partly drawn) [Example 38, 2-fluoro-4-(((1R)-1-methyl-6-(2-(4-(3-methyltetrahydrofuran-3-yl)-1H-1,2,3-triazol-1-yl)ethoxy)-1-(2-oxo-2-(thiazol-2-ylamino)ethyl)-1,2,3,4-tetrahydroisoquinolin-7-yl)oxy)benzoic acid]
292	5.98	Cc1nnc(-c2cn(CCOc3cc4c(cc3Oc3ccc(C(=O)O)c(F)c3)[C@@](C)(CC(=O)Nc3nccs3)NCC4)nn2)o1 [Example 39, (R)-2-fluoro-4-((1-methyl-6-(2-(4-(5-methyl-1,3,4-oxadiazol-2-yl)-1H-1,2,3-triazol-1-yl)ethoxy)-1-(2-oxo-2-(thiazol-2-ylamino)ethyl)-1,2,3,4-tetrahydroisoquinolin-7-yl)oxy)benzoic acid]
354	7.18	COCCOCc1cn(CCOc2cc3c(cc2Oc2ccc(C(=O)O)c(F)c2)[C@@](C)(CC(=O)Nc2nccs2)NCC3)nn1 [Example 41, (R)-2-fluoro-4-((6-(2-(4-((2-methoxyethoxy)methyl)-1H-1,2,3-triazol-1-yl)ethoxy)-1-methyl-1-(2-oxo-2-(thiazol-2-ylamino)ethyl)-1,2,3,4-tetrahydroisoquinolin-7-yl)oxy)benzoic acid]
389	5.97	C[C@]1(CC(=O)Nc2nccs2)NCCc2cc(OCCn3cc(CN4CCNC4=O)nn3)c(Oc3ccc(C(=O)O)c(F)c3)cc21 [Example 42, (R)-2-fluoro-4-((1-methyl-1-(2-oxo-2-(thiazol-2-ylamino)ethyl)-6-(2-(4-((2-oxoimidazolidin-1-yl)methyl)-1H-1,2,3-triazol-1-yl)ethoxy)-1,2,3,4-tetrahydroisoquinolin-7-yl)oxy)benzoic acid]
602	6.48	CC(=O)NCc1cn(CCOc2cc3c(cc2Oc2ccc(C(=O)O)c(F)c2)[C@@](C)(CC(=O)Nc2nccs2)NCC3)nn1 [Example 46]
